Measurements published in patent US9498477B2, “Compositions and uses thereof to ameliorate pain” (Purdue Research Foundation, priority 2011, dated 2016).

Tests used:
[1] = test system: Sprague Dawley rats models of spinal contusion injury; conditions: chronic SCI (5 months), single intraperitoneal dose 5 mg/kg body weight
Text: (§1) Spinal contusion injury. Sprague Dawley rats are subjected to a spinal contusion injury according to the procedure described by Basso et al., Graded histological and locomotor outcomes after spinal cord contusion using the NYU weight-drop device versus transaction, Exp Neurol. […] After 20 weeks, the animals are divided into untreated injury and treated injury groups, each of which is compared to an uninjured control.
Test compound treatment. A solution of test compound, such as hydralazine hydrochloride (Sigma), is prepared with phosphate buffered saline. The solution is sterilized through a filter and stored at 4° C. […] Untreated animals are administered saline vehicle intraperitoneally. Blood pressures are monitored using a CODA 2 system (Kent Scientific Corp.).
Cold allodynia evaluation. Sprague Dawley rats models of spinal contusion injury are divided into untreated injury and treated injury groups. The untreated injury groups are injected daily with vehicle as described herein. The treated injury groups are injected daily with test compound as described herein. Uninjured controls, untreated injury groups, and treated injury groups are evaluated for pain according to the procedure described by Choi et al., Behavioral signs of ongoing pain and cold allodynia in a rat model of neuropathic pain, Pain 59:369-376 (1994).

[2] = test system: Sprague Dawley rats models of spinal contusion injury; conditions: chronic SCI (5 months), single intraperitoneal dose 5 mg/kg body weight; remark: listed apart in the source
Text: as §1
Test compound treatment. […] The solution is sterilized through a filter and stored at 4° C. […] Untreated animals are administered saline vehicle intraperitoneally. Blood pressures are monitored using a CODA 2 system (Kent Scientific Corp.).
Mechanical allodynia evaluation. Sprague Dawley rats models of spinal contusion injury are divided into untreated injury and treated injury groups. The untreated injury groups are injected daily with vehicle as described herein. The treated injury groups are injected daily with test compound as described herein. Uninjured controls, untreated injury groups, and treated injury groups are evaluated for pain according to the procedure described by Choi et al., Behavioral signs of ongoing pain and cold allodynia in a rat model of neuropathic pain, Pain 59:369-376 (1994).

Q: For `NNc1nncc2ccccc12` [hydralazine], which “time to improvement of cold-induced pain after the injection” value [1] is on record?
A: ≤ 2 h

Q: What about the “duration of efficacy of the treatment, cold allodynia” value ([1]; FIG. 2 panel B) of the same compound?
A: at least 10 days

Q: What about the “time to improvement of mechanical allodynia after the injection” value [2] of the same compound?
A: ≤ 2 days

Q: And the “duration of efficacy of the treatment, mechanical allodynia” value ([2]; FIG. 2 panel A)?
A: at least 10 days
